From article PMC6375636, “Monotherapy with a low-dose lipopeptide HIV fusion inhibitor maintains long-term viral suppression in rhesus macaques” (PLoS Pathogens, 2019)
Peptide text beside a SMILES is read from it. * marks the point of attachment. Stearoyl = CCCCCCCCCCCCCCCCCC(=O)*; Palmitoyl = CCCCCCCCCCCCCCCC(=O)*

Legend:
HIV-1 LAI = format: cell-based; conditions: Table 2, subtype B, X4, mean ± SD of 3 assays in triplicate
Description: (§1) The inhibitory activities of inhibitors against HIV-1 pseudoviruses and replication-competent isolates were measured as described previously. Briefly, HIV-1 pseudoviruses were generated via the cotransfection of HEK293T cells with an Env-expressing plasmid and a backbone plasmid that encodes Env-defective, luciferase-expressing HIV-1 genome (pSG3Δenv). Viral stocks of replication-competent HIV-1 isolates were generated by transfecting viral molecular clones into HEK293T cells. Culture supernatants were harvested at 48 h posttransfection, and 50% tissue culture infectious doses (TCID50) in TZM-bl cells were determined. Inhibitors were prepared in 3-fold dilutions, mixed with 100 TCID50 of a virus, and then incubated for 1 h at room temperature. The mixture was added to TZM-bl cells (10^4/well), and the cells were incubated for additional 48 h at 37°C. Luciferase activity was measured as described above.

[1] = system: HIV-1 pseudovirus, primary Env CAP210.2.00.E8; format: cell-based; conditions: Env CAP210.2.00.E8, subtype C; mean ± SD of 3 assays in triplicate
Description: as §1

[2] = system: HIV-1 pseudovirus, primary Env PVO; format: cell-based; conditions: subtype B, mean ± SD of 3 assays in triplicate
Description: as §1

[3] = system: HIV-1 pseudovirus, primary Env BJOX002000.03.2; format: cell-based; conditions: Env BJOX002000.03.2, subtype B/C; mean ± SD of 3 assays in triplicate
Description: as §1

[4] = system: HIV-1 pseudovirus, primary Env HIV_25710–2.43; format: cell-based; conditions: Env HIV_25710–2.43, subtype C; mean ± SD of 3 assays in triplicate
Description: as §1

[5] = system: HIV-1 pseudovirus, primary Env CAP45.2.00.G3; format: cell-based; conditions: Env CAP45.2.00.G3, subtype C; mean ± SD of 3 assays in triplicate
Description: as §1

HIV-1 RHPA.c/2635 = format: cell-based; conditions: Table 2; RHPA.c/2635, subtype B, R5; mean ± SD of 3 assays in triplicate
Description: as §1

[6] = system: HIV-1 pseudovirus, primary Env CH119.10; format: cell-based; conditions: Env CH119.10, subtype B/C; mean ± SD of 3 assays in triplicate
Description: as §1

[7] = system: HIV-1 pseudovirus, primary Env CNE55; format: cell-based; conditions: Env CNE55, subtype A/E; mean ± SD of 3 assays in triplicate
Description: as §1

[8] = system: HIV-1 pseudovirus, primary Env B02; format: cell-based; conditions: Env B02, subtype B'; mean ± SD of 3 assays in triplicate
Description: as §1

[9] = system: HIV-1 pseudovirus, primary Env AE03; format: cell-based; conditions: Env AE03, subtype A/E; mean ± SD of 3 assays in triplicate
Description: as §1

HIV-1 89.6 = format: cell-based; conditions: Table 2; 89.6, subtype B, R5X4; mean ± SD of 3 assays in triplicate
Description: as §1

[10] = system: HIV-1 pseudovirus, primary Env SF162; format: cell-based; conditions: Env SF162, subtype B; mean ± SD of 3 assays in triplicate
Description: as §1

[11] = system: HIV-1 pseudovirus, primary Env 92UG037.8; format: cell-based; conditions: Env 92UG037.8, subtype A; mean ± SD of 3 assays in triplicate
Description: as §1

HIV-1 SG3 = format: cell-based; conditions: Table 2; SG3, subtype B, X4; mean ± SD of 3 assays in triplicate
Description: as §1

[12] = system: HIV-1 pseudovirus, primary Env ZM53M.PB12; format: cell-based; conditions: Env ZM53M.PB12, subtype C; mean ± SD of 3 assays in triplicate
Description: as §1

HIV-1 THRO.c/2626 = format: cell-based; conditions: Table 2; THRO.c/2626, subtype B, R5; mean ± SD of 3 assays in triplicate
Description: as §1

[13] = system: HIV-1 pseudovirus, primary Env GX11.13; format: cell-based; conditions: Env GX11.13, subtype A/E; mean ± SD of 3 assays in triplicate
Description: as §1

[14] = system: HIV-1 pseudovirus, primary Env CNE8; format: cell-based; conditions: Env CNE8, subtype A/E; mean ± SD of 3 assays in triplicate
Description: as §1

[15] = system: HIV-1 pseudovirus, primary Env CH110; format: cell-based; conditions: Env CH110, subtype B/C; mean ± SD of 3 assays in triplicate
Description: as §1

HIV-1HXB2 Env = biological target: T1, HIV-1HXB2 Env (Human immunodeficiency virus type 1 group M subtype B, UniProt P04578); assay: HIV-1HXB2 Env-mediated cell-cell fusion (HL2/3 effector, TZM-bl target, luciferase reporter); format: cell-based
T1 construct: HL2/3 cells, which stably express high levels of Env, Gag, Tat, Rev, and Nef proteins of the integrated HIV-1 molecular clone HXB2/3gpt; host or cells: HL2/3 cells (effector), cocultured with TZM-bl target cells
T1 sequence (P04578 512-856): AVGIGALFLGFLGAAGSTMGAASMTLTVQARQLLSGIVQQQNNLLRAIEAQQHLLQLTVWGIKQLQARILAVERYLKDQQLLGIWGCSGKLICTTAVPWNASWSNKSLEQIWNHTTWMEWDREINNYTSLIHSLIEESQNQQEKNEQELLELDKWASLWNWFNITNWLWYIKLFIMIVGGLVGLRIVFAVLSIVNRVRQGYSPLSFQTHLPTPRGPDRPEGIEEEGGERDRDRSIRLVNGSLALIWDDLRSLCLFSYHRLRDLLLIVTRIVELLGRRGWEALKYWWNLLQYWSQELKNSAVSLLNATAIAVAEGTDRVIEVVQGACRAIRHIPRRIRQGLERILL
Description: The inhibitory activities of inhibitors on HIV-1HXB2 Env-mediated cell-cell fusion were determined by a reporter gene assay based on the activation of an HIV LTR-driven luciferase cassette in TZM-bl cells (target) by HIV-1 tat from HL2/3 cells (effector). Briefly, 1 x 10^4/well of TZM-bl cells were plated in 96-well plates and incubated at 37°C overnight. Then, 3 x 10^4/well of HL2/3 cells were cocultured with target cells for 6 h at 37°C in the presence or absence of an inhibitor at graded concentrations. Luciferase activity was measured using luciferase assay reagents and a Luminescence Counter (Promega, Madison, Wisconsin, USA).

[16] = biological target: T2, gp41 NHR-derived target mimic peptide N39 (Human immunodeficiency virus type 1 group M subtype B, UniProt P04578); assay: CD spectroscopy of lipopeptides in complex with target mimic peptide N39; format: binding, HIV-1; set-up: [θ]222: unit not given here; conditions: complex with N39, each peptide 10 μM in PBS; representative of 2 assays
T2 construct: the gp41 NHR-derived target mimic peptide N39
T2 sequence (P04578 528-566): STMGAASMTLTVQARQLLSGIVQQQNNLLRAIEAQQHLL
Description: Spectra were corrected by subtracting a solvent blank.

## CCCCCCCCCCCCCCCC(=O)NCCCC[C@H](NC(=O)[C@H](CCC(=O)O)NC(=O)[C@H](CC(C)C)NC(=O)[C@H](CCCCN)NC(=O)[C@H](CCCCN)NC(=O)[C@H](CC(C)C)NC(=O)[C@H](CCC(=O)O)NC(=O)[C@H](CCC(=O)O)NC(=O)[C@H](CCC(=O)O)NC(=O)[C@H](CC(N)=O)NC(=O)[C@H](CCCCN)NC(=O)[C@H](CCCCN)NC(=O)[C@H](CCC(N)=O)NC(=O)[C@H](CCC(N)=O)NC(=O)[C@H](CCC(=O)O)NC(=O)[C@H](CCC(=O)O)NC(=O)[C@H](C)NC(=O)[C@H](CCCCN)NC(=O)[C@H](CCCCN)NC(=O)[C@H](CC(C)C)NC(=O)[C@H](CC(C)C)NC(=O)[C@H](CCC(=O)O)NC(=O)[C@H](CCC(=O)O)NC(=O)[C@@H](NC(=O)[C@H](CCCCN)NC(=O)[C@H](CCC(N)=O)NC(=O)[C@H](CCC(=O)O)NC(=O)[C@H](Cc1c[nH]c2ccccc12)NC(C)=O)[C@@H](C)CC)C(N)=O [LP-52, reference compound] (Ac-WEQKIEELLKKAEEQQKKNEEELKKLEK(Palmitoyl)-NH2)
HIV-1 LAI
  IC50: 12.2 ± 0.93 pM
[1]
  IC50: 39.2 ± 3.57 pM
[2]
  IC50: 29.7 ± 7.83 pM
[3]
  IC50: 36.8 ± 2.93 pM
[4]
  IC50: 14.1 ± 1.91 pM
[5]
  IC50: 7.58 ± 0.64 pM
HIV-1 RHPA.c/2635
  IC50: 9.42 ± 1.34 pM
[6]
  IC50: 10.7 ± 1.62 pM
[7]
  IC50: 17.3 ± 1.41 pM
[8]
  IC50: 14.9 ± 1.55 pM
[9]
  IC50: 10.9 ± 1.89 pM
HIV-1 89.6
  IC50: 17.5 ± 2.05 pM
[10]
  IC50: 26.4 ± 3.81 pM
[11]
  IC50: 28.2 ± 8.27 pM
HIV-1 SG3
  IC50: 5.22 ± 1.89 pM
[12]
  IC50: 26.9 ± 3.04 pM
HIV-1 THRO.c/2626
  IC50: 27.1 ± 4.61 pM
[13]
  IC50: 8.7 ± 0.88 pM
[14]
  IC50: 4.97 ± 1.31 pM
[15]
  IC50: 7.98 ± 1.3 pM
HIV-1HXB2 Env
  IC50: 18.7 ± 3.01 pM
[16]
  Helix content (%): 64%
  [θ]222: -21060

## CCCCCCCCCCCCCCCCCC(=O)NCCCC[C@H](NC(=O)[C@H](CCC(=O)O)NC(=O)[C@H](CC(C)C)NC(=O)[C@H](CCCCN)NC(=O)[C@H](CCCCN)NC(=O)[C@H](CC(C)C)NC(=O)[C@H](CCC(=O)O)NC(=O)[C@H](CCC(=O)O)NC(=O)[C@H](CCC(=O)O)NC(=O)[C@H](CC(N)=O)NC(=O)[C@H](CCCCN)NC(=O)[C@H](CCCCN)NC(=O)[C@H](CCC(N)=O)NC(=O)[C@H](CCC(N)=O)NC(=O)[C@H](CCC(=O)O)NC(=O)[C@H](CCC(=O)O)NC(=O)[C@H](C)NC(=O)[C@H](CCCCN)NC(=O)[C@H](CCCCN)NC(=O)[C@H](CC(C)C)NC(=O)[C@H](CC(C)C)NC(=O)[C@H](CCC(=O)O)NC(=O)[C@H](CCC(=O)O)NC(=O)[C@@H](NC(=O)[C@H](CCCCN)NC(=O)[C@H](CCC(N)=O)NC(=O)[C@H](CCC(=O)O)NC(=O)[C@H](Cc1c[nH]c2ccccc12)NC(C)=O)[C@@H](C)CC)C(N)=O [LP-80] (Ac-WEQKIEELLKKAEEQQKKNEEELKKLEK(Stearoyl)-NH2)
HIV-1 LAI
  IC50: 5.85 ± 0.86 pM
[1]
  IC50: 10.6 ± 2.56 pM
[2]
  IC50: 13 ± 1.67 pM
[3]
  IC50: 8.48 ± 0.08 pM
[4]
  IC50: 3.2 ± 0.68 pM
[5]
  IC50: 1.69 ± 0.48 pM
HIV-1 RHPA.c/2635
  IC50: 4.81 ± 1.98 pM
[6]
  IC50: 4.7 ± 0.35 pM
[7]
  IC50: 1.11 ± 0.18 pM
[8]
  IC50: 8.9 ± 1.03 pM
[9]
  IC50: 3.44 ± 0.83 pM
HIV-1 89.6
  IC50: 5.27 ± 0.3 pM
[10]
  IC50: 3.12 ± 0.37 pM
[11]
  IC50: 3.72 ± 1 pM
HIV-1 SG3
  IC50: 1.8 ± 0.42 pM
[12]
  IC50: 8.62 ± 0.74 pM
HIV-1 THRO.c/2626
  IC50: 14.9 ± 1.93 pM
[13]
  IC50: 4.85 ± 0.99 pM
[14]
  IC50: 3.56 ± 0.7 pM
[15]
  IC50: 3.3 ± 0.29 pM
HIV-1HXB2 Env
  IC50: 12.6 pM
[16]
  Helix content (%): 57%
  [θ]222: -18955
